Test results as given in patent US20240043435A1, “TYK-2 INHIBITOR” (BEIGENE, LTD., priority 2020, published 2024).
Where two headings read alike, the source gives them in different places.

Tests used:
pSTAT5/GM-CSF = pSTAT5/GM-CSF cellular assay (JAK2 selectivity); type: cell-based
[1] = tested on: JAK2, TYK2/p-STAT4 (Tyr693) activated by IL-12 in NK-92 cell line; experiment: IL-12-JAK2, TYK2/p-STAT4 (Tyr693) inhibition IC50 cellular assay; type: cell-based; details: for Selectivity fold (TYK2/JAK2): Cellular assay, pSTAT5/GM-CSF IC50 vs pSTAT4/IL-12 IC50; for IC50: NK92, Cellular assay, read-out: pSTAT4/IL-12 IC50
Summary of the method: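 p-STAT4 (Tyr693) in lysates was measured by AlphaLISA SureFire Ultra after a 30 min IL-12 challenge (40 ng/ml final) at 37° C. Overnight-starved, IL-2-free NK-92 cells had been pretreated 1 h with compound at 10000 to 0.61 nM (4-fold, 8 points). IC50 values came from four-parameter logistic fitting.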

[2] = molecular target: T1, TYK2-JH2 (aa 575-869, in-house) protein (Homo sapiens, UniProt P29597); experiment: TYK2-JH2 biochemical assay (HTRF probe displacement); type: binding; details: for Selectivity fold (TYK2/JAK1): JAK1-JH2 IC50 vs TYK2-JH2 IC50
T1 construct: TYK2-JH2 (aa 575-869, in-house) protein; made in house
Summary of the method: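 HTRF probe-displacement format: compound dilutions (10 points, 5-fold, from 500 uM in DMSO at 500×) were combined with 0.2 nM TYK2-JH2 protein for 0.5 h at room temperature in HEPES pH 7.5 buffer with MgCl2, BSA, DTT and Brij-35. Percent inhibition came from the 615/665 nm fluorescence ratio, fitted to a four-parameter logistic for IC50.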

[3] = molecular target: T2, JAK1-JH2 protein (aa 561-860, in-house) (Homo sapiens, UniProt P23458); experiment: JAK1-JH2 biochemical assay (HTRF probe displacement); type: binding
T2 construct: JAK1-JH2 protein (aa 561-860, in-house); made in house
Description: Assay B: JAK1-JH2 Biochemical Assay
Compounds disclosed herein were tested for blocking of JAK1-JH2 protein (aa 561-860, in-house) with its probe in an assay based on Homogeneous Time Resolved Fluorescence. Compound dilution is done according to the following protocol: (1) Prepare 500× compounds solution in DMSO from 500 uM by 5-fold dilution, total 10 doses were included; (2) Prepare 10× compounds solution in an assay buffer containing 20 mM HEPES, pH 7.5, 10 mM MgCl2, 0.005% BSA, 2 mM DTT, 0.015% Brij-35 by transferring 1 μl serial 500× stock solution into 49 μl assay buffer. 4 μL of 1.17 nM recombinant JAK1-JH2 protein was pre-incubated with 1 μl of 10× serial dilution of compounds at room temperature for 0.5 hour. […] The HTRF signals (ex337 nm, em620 nm/665 nm) were read on BMG PHERAstar FS instrument. The inhibition percentage of JAK1 interaction with its probe in presence of increasing concentrations of compounds was calculated based on the ratio of fluorescence at 615 nm to that at 665 nm. The IC50 for each compound was derived from fitting the data to the four-parameter logistic equation by Dotmatics.

[4] = Mouse PK study, oral administration; type: in vivo, male CD-1 mouse
Description: Biological Assay: Mouse PK Study
The pharmacokinetics of compounds were evaluated in male CD-1 mouse via Oral Administration (dose of 10 mg/kg). For oral administration study, test compounds were added in 0.5% MC in water and administrated to mice at 10 mg/kg by gavage. Blood was collected into EDTA-K2 anticoagulant tube at 15, and 30 min and 1, 2, 4, 8 and 24 h after administration. Approximately 30 μL blood was collected at each time point. And then the blood was centrifuged at 2000 g for 5 min at 4° C. using a centrifuge to obtain the plasma. The plasma sample was transferred into a tube and stored in a freezer at approximately −70° C. until the determination of concentration by LC-MS/MS. Pharmacokinetic parameters were estimated by using WinNonlin software (version 8.1, Pharsight Corporation, CA, USA) with non-compartmental method. The following pharmacokinetic parameters were calculated, whenever possible from the plasma concentration-time data: Tmax, Cmax, AUClast, AUCinf, T1/2 for PO administration. All animals were fasted before experiment.

[5] = molecular target: T2, JAK1-JH2 protein (aa 561-860, in-house); experiment: JAK1-JH2 biochemical assay (HTRF probe displacement); type: binding; details: in-house probe of the JAK1-JH2 assay
[6] = Biochemical assay, read-out: TYK2-JH2 IC50
[7] = read-out: Tyk2 JH2 domain bio-chemical potency
[8] = Po dosing (10 mg/kg), male CD-1 mouse
[9] = male, CD-1, plasma, Po 10 mg/kg mouse
[10] = plasma, Po dosing (10 mg/kg), male CD-1 mouse, read-out: Cmax

T1 sequence (P29597 575-869): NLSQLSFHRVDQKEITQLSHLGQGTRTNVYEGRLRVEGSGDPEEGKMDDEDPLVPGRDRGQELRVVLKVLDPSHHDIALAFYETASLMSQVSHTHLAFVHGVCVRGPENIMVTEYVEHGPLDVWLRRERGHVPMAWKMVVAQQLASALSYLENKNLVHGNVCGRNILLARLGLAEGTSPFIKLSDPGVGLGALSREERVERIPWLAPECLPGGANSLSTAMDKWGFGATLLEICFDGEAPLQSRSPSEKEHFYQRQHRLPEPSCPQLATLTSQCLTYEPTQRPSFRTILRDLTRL
T2 sequence (P23458 561-860): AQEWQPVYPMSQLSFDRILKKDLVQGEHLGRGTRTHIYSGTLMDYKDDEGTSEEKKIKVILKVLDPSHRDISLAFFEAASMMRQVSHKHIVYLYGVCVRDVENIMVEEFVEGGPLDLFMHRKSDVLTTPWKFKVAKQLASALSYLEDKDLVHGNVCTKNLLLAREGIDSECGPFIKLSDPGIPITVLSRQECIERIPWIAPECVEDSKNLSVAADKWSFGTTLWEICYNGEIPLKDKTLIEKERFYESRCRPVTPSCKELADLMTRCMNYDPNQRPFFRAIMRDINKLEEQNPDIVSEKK

SMILES | IC50 (pSTAT5/GM-CSF) [nM] | IC50 [1] [nM] | Selectivity fold (TYK2/JAK1) ([2]; Biochemical assay) [fold] | IC50 [2, 6] [nM] | IC50 [3] [nM] | Selectivity fold (TYK2/JAK2) [1] [fold] | also measured
CC(=O)Nc1cc(Nc2cccc(S(C)(=O)=O)c2)c(-c2cccnn2)cn1 [Example A1, N-(4-((3-(methylsulfonyl)phenyl)amino)-5-(pyridazin-3-yl)pyridin-2-yl)acetamide] | > 10000 | 79.5 | 288 | 0.052 | 15 | >125 | 
CC(=O)Nc1cc(Nc2cccc(S(C)(=O)=O)c2)c(-c2cc(C)nc(C)n2)cn1 [Example A6, N-(5-(2,6-dimethylpyrimidin-4-yl)-4-((3-(methylsulfonyl)phenyl)amino)pyridin-2-yl)acetamide] | > 10000 | 51 | 128 | 0.14 | 18 | >196 | 
CC(=O)Nc1cc(Nc2cccc(S(C)(=O)=O)c2)c(-c2ccccn2)cn1 [Example B1, N-(4′-((3-(methylsulfonyl)phenyl)amino)-[2,3′-bipyridin]-6′-yl)acetamide] | > 10000 | 9.89 | 194 |  | 7.4 | >1011 | IC50 [2, 7]: 0.038 nM
CC(=O)Nc1cc(Nc2cccc(S(C)(=O)=O)n2)c(-c2ccccn2)cn1 [Example B5, N-(4′-((6-(methylsulfonyl)pyridin-2-yl)amino)-[2,3′-bipyridin]-6′-yl)acetamide] | > 10000 | 0.243 | 19 |  | 0.31 | >41152 | fold more potent than Example B1 in cellular assay [1]: 40 fold; fold more potent than Example B1 in bio-chemical assay [2]: 2 fold; IC50 [2, 7]: 0.016 nM
COc1cccc(Nc2cc(NC(C)=O)ncc2-c2ccccn2)c1 [Example B13, N-(4′-((3-methoxyphenyl)amino)-[2,3′-bipyridin]-6′-yl)acetamide] | > 10000 | 183 | 42 | 0.43 | 18 | >54 | 
CC(=O)Nc1cc(Nc2cccc(S(C)(=O)=O)c2)c(-c2ccc(N3CCOCC3=O)cn2)cn1 [Example G1, N-(4′-((3-(methylsulfonyl)phenyl)amino)-5-(3-oxomorpholino)-[2,3′-bipyridin]-6′-yl)acetamide] | > 10000 | 14.4 |  | 0.026 | 4.9 |  | Selectivity fold (TYK2/JAK2) (pSTAT5/GM-CSF; pSTAT5/GM-CSF vs pSTAT4/IL-12): >694 fold; Selectivity fold (TYK2/JAK1) ([3]; JAK1-JH2 vs TYK2-JH2): 188 fold
CN(C(=O)CN1CCN(CCNC(=O)CCOCCOCCOCCOCCOCCOCCNC(=O)CCCC[C@@H]2SC[C@@H]3NC(=O)N[C@@H]32)CC1)c1ccc(N/C(=C2\C(=O)Nc3ccccc32)c2ccccc2)cc1 [Probe 2, N-(2-(4-(2-(methyl(4-((((Z)-2-oxoindolin-3-ylidene)(phenyl)methyl)amino)phenyl)amino)-2-oxoethyl)piperazin-1-yl)ethyl)-1-(5-((3aS,4S,6aR)-2-oxohexahydro-1H-thieno[3,4-d]imidazol-4-yl)pentanamido)-3,6,9,12,15,18-hexaoxahenicosan-21-amide] |  |  |  |  |  |  | Kd [5]: 2.9 nM

The next lines start with results.

IC50 (pSTAT5/GM-CSF) [nM] | IC50 [1] [nM] | Selectivity fold (TYK2/JAK1) ([2]; Biochemical assay) [fold] | IC50 [2, 6] [nM] | IC50 [3] [nM] | SMILES | Selectivity fold (TYK2/JAK2) [1] [fold] | also measured
 |  | 14.2 | 18 | 257 | CS(=O)(=O)c1cccc(Nc2cc(N)ncc2-c2ccccn2)c1 [Example B19, N4′-(3-(methylsulfonyl)phenyl)-[2,3′-bipyridine]-4′,6′-diamine] |  | 
 |  | 50 | 1.5 | 76 | CS(=O)(=O)c1cccc(Nc2cc(NC(=O)C3CC3)ncc2-c2ccccn2)c1 [Example B20, N-(4′-((3-(methylsulfonyl)phenyl)amino)-[2,3′-bipyridin]-6′-yl)cyclopropanecarboxamide] |  | Tyk2 inhibition potency on replacing R methyl (Example B1) by cyclopropane ([2]; compared with Example B1): dramatically decreased
> 10000 | 1.82 |  | 0.026 |  | COc1cc(Nc2cc(NC(C)=O)ncc2-c2ccc(F)cn2)nc(S(C)(=O)=O)c1 [Example F22, N-(5-fluoro-4′-((4-methoxy-6-(methylsulfonyl)pyridin-2-yl)amino)-[2,3′-bipyridin]-6′-yl)acetamide] | >5494 | AUClast [4, 8]: 2098 ng·h/mL; T1/2 [4, 8]: 1.48 h; AUC [4, 9]: 2100 ng·h/mL; Cmax [4, 10]: 911 ng/mL
> 10000 | 2.6 | 87.5 | 0.016 | 1.4 | CC(=O)Nc1cc(Nc2cccc(S(C)(=O)=O)c2)c(-c2ccc(C(C)(C)O)cn2)cn1 [Example H1, N-(5-(2-hydroxypropan-2-yl)-4′-((3-(methylsulfonyl)phenyl)amino)-[2,3′-bipyridin]-6′-yl)acetamide] | >3846 | 
> 10000 | 1 |  | 0.027 |  | COc1cc(Nc2cc(NC(C)=O)ncc2-c2ccc(C(C)(C)O)cn2)nc(S(C)(=O)=O)c1 [Example H11, N-(5-(2-hydroxypropan-2-yl)-4′-((4-methoxy-6-(methylsulfonyl)pyridin-2-yl)amino)-[2,3′-bipyridin]-6′-yl)acetamide] | >10000 | AUClast [4, 8]: 19.3 ng·h/mL; Cmax [4, 8]: 8.73 ng/mL; T1/2 [4, 8]: 2.07 h; AUC [4, 9]: 19.4 ng·h/mL; Cmax ([4]; male, CD-1, plasma, Po 10 mg/kg mouse, read-out: Cmax): 7 ng/mL
1820 | 0.53 |  | 0.026 |  | COc1cc(Nc2cc(NC(C)=O)ncc2-c2ccc3c(n2)OCC(C)(C)O3)nc(S(C)(=O)=O)c1 [Example Q25, N-(5-(2,2-dimethyl-2,3-dihydro-[1,4]dioxino[2,3-b]pyridin-6-yl)-4-((4-methoxy-6-(methylsulfonyl)pyridin-2-yl)amino)pyridin-2-yl)acetamide] |  | AUC and Cmax fold higher than those of Example F22 and H11 ([4]; Po 10 mg/kg mouse): at least 3 fold; AUClast [4, 8]: 16245 ng·h/mL; T1/2 [4, 8]: 3.01 h; AUC [4, 9]: 16200 ng·h/mL; Cmax [4, 10]: 2820 ng/mL; Selectivity fold (TYK2/JAK2) (pSTAT5/GM-CSF; pSTAT5/GM-CSF IC50 over pSTAT4/IL-12 IC50): 3437 fold
